Tests used:
Alternaria brassicae = test: In vivo test of activity on Alternaria brassicae (crucifer black spot) on radish; settings: preventive spray 24 h before inoculation
Botrytis cinerea = test: In vivo test of activity on Botrytis cinerea on cucumber; settings: preventive spray 24 h before inoculation
Description: In Vivo Test of Activity on Botrytis cinerea on Cucumber
(§1) An aqueous solution of the active material to be tested is prepared at a concentration of 2 g/l by grinding in solution 1 or solution 2:
(§2) • Water • Tween 80 diluted to 10% in water: 5 μl/mg of active material • Clay in a sufficient amount for active material+clay to equal 100 mg; Solution 2
(§3) Concentrated solution containing surfactants and adjuvants conventionally used: 200 μl/mg of active material.
(§4) The aqueous solution is diluted with water so as to obtain the desired concentration.
Cucumbers of the Marketer variety are sown in a 50/50 pozzolan/peat substrate and maintained at 18-22° C. The treatment is carried out by spraying the aqueous suspension. The untreated control plants are sprayed with water.
24 hours after treatment, the plants are inoculated by spraying a solution of Botrytis cinerea spores (150 000 spores/ml) originating from a 15-day culture.
The cucumber plants are then maintained at 11-15° C. in a humid atmosphere. The effectiveness of the products is evaluated relative to the control plants after seven to eight days of incubation.
(§5) The effectiveness of the molecules is estimated, at 500 g/ha, 250 g/ha or 330 ppm, by the percentage of control relative to untreated plants. Under these conditions, good effectiveness is defined as more than 80% effectiveness. Average effectiveness is defined as an effectiveness between 50 and 80%. Poor effectiveness is defined as an effectiveness between 10 and 50% and zero effectiveness is defined as less than 10% effectiveness.

Pyrenophora teres = test: In vivo test of activity on Pyrenophora teres (barley net blotch); settings: preventive spray 24 h before inoculation
Description: In Vivo Test of Activity on Pyrenophora teres (Barley Net Blotch)
as §1, §2, §3, §4
Barley plants of the Express variety are sown in a 50/50 pozzolan/peat substrate and maintained at 12° C. The treatment is carried out at the 1-leaf stage (10 cm) by spraying the aqueous suspension. The untreated control plants are sprayed with water.
24 hours after treatment, the plants are inoculated by spraying a solution of Pyrenophora teres spores (10 000 spores/ml) originating from a 10-day culture.
The barley plants are then maintained at 18° C. in a humid atmosphere. The effectiveness of the products is evaluated relative to the control plants after eight to fifteen days of incubation.
as §5

Septoria tritici = test: In vivo test of activity on Septoria tritici (wheat septoria disease); settings: 500 g/ha, preventive spray 24 h before inoculation
Description: In Vivo Test of Activity on Septoria tritici (Wheat Septoria Disease
as §1, §2, §3, §4
Wheat plants of the Scipion variety are sown in a 50/50 pozzolan/peat substrate and maintained at 12° C. The treatment is carried out at the 1-leaf stage (10 cm) by spraying the aqueous suspension. The untreated control plants are sprayed with water.
24 hours after treatment, the plants are inoculated by spraying a solution of Septoria tritici spores (500 000 spores/ml) from a 7-day culture.
The wheat plantlets are then maintained at 18-20° C. in a humid atmosphere for 72 hours, and then at 90% relative humidity. The effectiveness of the products is evaluated relative to the control plants, 21 to 28 days after the contamination.
as §5

Measured: effectiveness (percentage of control relative to untreated plants)

COc1ccccc1C(=O)NCCc1ncc(C(F)(F)F)cc1Cl [Compound A-7]
good to average: Alternaria brassicae; 500 g/ha | Botrytis cinerea; 500 g/ha | Pyrenophora teres; 500 g/ha | Septoria tritici

O=C(NCCc1ncc(C(F)(F)F)cc1Cl)c1ccccc1C(F)(F)F [Compound A-20]
good to average: Alternaria brassicae; 250 g/ha | Alternaria brassicae; 330 ppm | Alternaria brassicae; 500 g/ha | Botrytis cinerea; 250 g/ha | Botrytis cinerea; 330 ppm | Botrytis cinerea; 500 g/ha | Pyrenophora teres; 250 g/ha | Pyrenophora teres; 330 ppm | Pyrenophora teres; 500 g/ha | Septoria tritici

O=C(NCCc1ncc(C(F)(F)F)cc1Cl)c1c(F)cccc1F [Compound A-25]
good to average: Alternaria brassicae; 500 g/ha | Botrytis cinerea; 500 g/ha | Pyrenophora teres; 500 g/ha | Septoria tritici
